Assay results: patent US20250374924A1, “ACTIVE MOLECULES IN THE SECRETOME OF PSEUDOMONAS PROTEGENS PBL3” (Board of Regents of the University of Nebraska, priority 2024, published 2025)
Entries after “also recorded” stand apart in the source; their conditions may differ.

What was measured:
[1] = test system: Burkholderia glumae; assay: Antimicrobial assay in vitro: growth of B. glumae in KB broth (OD600 after 18 hours); conditions: for minimum inhibitory concentration needed for reduction of B. glumae growth in vitro: concentrations tested 1000, 100, 10 μg/mL; for growth of B. glumae (in words): concentrations ranging from 10 μg/mL to 1000 μg/mL
Protocol: A single colony of P. protegens PBL3 was grown in 1×M9 minimal media (Sigma Aldrich, St. Louis, MO) supplemented with filter-sterilized 56 mM Myo-inositol, 2 mM MgSO4·7H2O, and 0.2 mM CaCl2). The culture was incubated at 25° C. with constant agitation (210 rpm) for 60 hours until reaching an optical density at 600 nm (OD600) of 0.5. Bacterial culture was centrifuged at 10,000 rpm for 10 minutes. The bacterial pellet was discarded and the supernatant, containing the secreted fraction (secretome) was transferred to a new tube and filter-sterilized using a 0.22 μm filter (Fisher Scientific, Ireland) to eliminate any residual bacterial suspension.
Orfamide A, orfamide B, pyrrolnitrin, and pyoluteorin (Cayman Chemical Company, Ann Arbor, MI), and pyochelin (Santa Cruz Biotechnology, Dallas, TX), were diluted in 5% dimethyl sulfoxide (DMSO) at 1000 μg/mL and further diluted to 100 μg/mL and 10 μg/mL. Similarly, pyoverdine (Sigma-Aldrich, Saint Louis, MO) was diluted in water, whereas 2,4-DAPG (ThermoFisher Scientific, Poland) and fengycin (Sigma-Aldrich, Saint Louis, MO) were diluted in 5% ethanol at 1000 μg/mL and further diluted to 100 μg/mL and 10 μg/mL.
Burkholderia glumae grown on KB was scraped from the agar and resuspended in sterile water to a final OD600 of 0.2. One hundred microliters of B. glumae was added to 200 μL of KB broth to make a master mix. The master mix was supplemented with either water, 5% DMSO, or 5% ethanol, used as control. Alternatively, master mix was supplemented with either P. protegens PBL3 secretome or different compounds (orfamide A, orfamide B, fengycin, pyrrolnitrin, pyochelin, pyoverdine, 2,4-DAPG, or pyoluteorin), each at three concentrations of 1000 μg/mL, 100 μg/mL, and 10 μg/mL, or combination of compounds. Two compound combinations were chosen, the first combination consisted of 2,4-DAPG and pyoluteorin at final concentrations of 100 μg/mL and 10 μg/mL, respectively. The second combination consisted of 2,4-DAPG and pyoluteorin, each at concentration of 10 μg/mL. […] The growth of B. glumae was evaluated by measuring the OD600 using a spectrophotometer (Genesys 140, Thermoscientific, Madison, WI, USA). Each experiment was replicated three times.

[2] = test system: rifampicin-resistant strain of B. glumae; assay: Antimicrobial assay in planta: rice panicles pre-treated with compound, then spray-inoculated with B. glumae (BPB symptoms, bacterial populations); format: in vivo, Burkholderia glumae; conditions: 3 dpi; for reduction of B. glumae populations in rice panicles: pre-treated with 500 μg/mL, vs water pre-treated inoculated panicles, FIG. 4B; for BPB symptoms in rice panicles (in words): rice Kitaake panicles pre-treated with 500 μg/mL, water pre-treated, inoculated panicles exhibited the highest levels of BPB symptoms, FIG. 4A
[3] = at a concentration of 1000 μg/mL
[4] = compound at 1000 μg/mL, 18 hours, FIG. 2
[5] = other concentrations than 1000 μg/mL (100 μg/mL, 10 μg/mL), FIG. 2
[6] = at the three concentrations 10 μg/mL, 100 μg/mL, 1000 μg/mL
[7] = compound at 100 μg/mL, 18 hours, FIG. 2

For `CN1[C@@H]([C@H]2CSC(c3ccccc3O)=N2)SC[C@H]1C(=O)O` [pyochelin], the “effect on growth of B. glumae (in words)” value [1, 3] was “inhibits B. glumae”, the “reduction of growth of B. glumae” value [1, 4] was 40% and the “minimum inhibitory concentration needed for reduction of B. glumae growth in vitro” value [1] was 1000 µg/mL. The “effect on growth of B. glumae (in words)” value [1, 5] was “did not have any effect”, the “reduction of B. glumae populations in rice panicles” value (“reduction of B. glumae populations” below) [2] was “No changes in B. glumae populations” and the “BPB symptoms in rice panicles (in words)” value [2] was “showed reduction of symptoms”.

In the case of orfamide B, the “growth of B. glumae (in words)” value ([1]; FIG. 2) is reported as “did not reduce the growth of B. glumae”.

Orfamide A was tested, and the “growth of B. glumae (in words)” value ([1]; FIG. 2) was “did not reduce the growth of B. glumae”.

`O=C(c1cc(Cl)c(Cl)[nH]1)c1c(O)cccc1O` [pyoluteorin] was tested, and the “effect on growth of B. glumae (in words)” value [1, 6] was “inhibits B. glumae; also recorded: significantly reduced the growth of B. glumae”, the “reduction of growth of B. glumae” value [1, 7] was 97% and the “reduction of growth of B. glumae” value [1, 4] was 97%. The “minimum inhibitory concentration needed for reduction of B. glumae growth in vitro” value [1] was 100 µg/mL, the “reduction of B. glumae populations” value [2] was 1.5 logs and the “BPB symptoms in rice panicles (in words)” value [2] was “showed reduction of symptoms”.

For fengycin, the “growth of B. glumae (in words)” value ([1]; FIG. 2) was “did not reduce the growth of B. glumae”.

With pyoverdine the “effect on growth of B. glumae (in words)” value [1, 6] was “inhibits B. glumae”, the “reduction of growth of B. glumae” value [1, 7] was ~80% and the “reduction of growth of B. glumae” value [1, 4] was ~80%. The “minimum inhibitory concentration needed for reduction of B. glumae growth in vitro” value [1] was 100 µg/mL and the “reduction of B. glumae populations” value [2] was “No changes in B. glumae populations”.

With `CC(=O)c1c(O)cc(O)c(C(C)=O)c1O` [2,4-DAPG, 2,4-diacetylphloroglucinol] the “reduction in B. glumae growth” value ([1]; 2,4-DAPG at 100 μg/mL alone or with pyoluteorin at 10 μg/mL, 18 hours, FIG. 7) was 45%, the “effect on growth of B. glumae (in words)” value [1, 6] was “inhibits B. glumae; also recorded: significantly reduced the growth of B. glumae” and the “reduction of growth of B. glumae” value [1, 4] was 93%. The “minimum inhibitory concentration needed for reduction of B. glumae growth in vitro” value [1] was 100 µg/mL, the “reduction of B. glumae populations” value [2] was 1.17 logs and the “BPB symptoms in rice panicles (in words)” value [2] was “showed reduction of symptoms”.

`O=[N+]([O-])c1c(Cl)cccc1-c1c[nH]cc1Cl` [pyrrolnitrin] was tested, and the “effect on growth of B. glumae (in words)” value [1, 3] was “inhibits B. glumae”, the “reduction of growth of B. glumae” value [1, 4] was 25% and the “minimum inhibitory concentration needed for reduction of B. glumae growth in vitro” value [1] was 1000 µg/mL. For the same compound, the “effect on growth of B. glumae (in words)” value [1, 5] was “did not have any effect”.
